Assay results taken from the supplement of paper PMC10307832.

Experiments:
Experiment in all cases: relative viability (nuclei count vs DMSO), 5 days (fraction); higher = more cells survive
Alisertib + Trametinib = compound: COc1cc(Nc2ncc3c(n2)-c2ccc(Cl)cc2C(c2c(F)cccc2OC)=NC3)ccc1C(=O)O [Alisertib] + CC(=O)Nc1cccc(-n2c(=O)n(C3CC3)c(=O)c3c(Nc4ccc(I)cc4F)n(C)c(=O)c(C)c32)c1 [Trametinib] (partner 0.02 µM)
Summary of the method: (§1)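 One day after seeding in 1536-well plates, lung cancer cell lines were dosed by pin tool. Dosing was either single-drug or a fixed anchor-drug dose plus five library-drug doses (not always all listed) in √10 steps. After 5 days, nuclei were stained in one fix-and-stain step and counted on 4× images, and relative viability is the nuclei count of treated wells over that of vehicle wells, given as the median of duplicate plates.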

Alisertib + Bortezomib = compound: COc1cc(Nc2ncc3c(n2)-c2ccc(Cl)cc2C(c2c(F)cccc2OC)=NC3)ccc1C(=O)O [Alisertib] + CC(C)C[C@H](NC(=O)[C@H](Cc1ccccc1)NC(=O)c1cnccn1)B(O)O [Bortezomib] (partner 0.002 µM)
Summary of the method: as §1

Alisertib + Pictilisib = compound: COc1cc(Nc2ncc3c(n2)-c2ccc(Cl)cc2C(c2c(F)cccc2OC)=NC3)ccc1C(=O)O [Alisertib] + CS(=O)(=O)N1CCN(Cc2cc3nc(-c4cccc5[nH]ncc45)nc(N4CCOCC4)c3s2)CC1 [Pictilisib] (partner 1 µM)
Summary of the method: as §1

Alisertib + Olaparib = compound: COc1cc(Nc2ncc3c(n2)-c2ccc(Cl)cc2C(c2c(F)cccc2OC)=NC3)ccc1C(=O)O [Alisertib] + O=C(c1cc(Cc2n[nH]c(=O)c3ccccc23)ccc1F)N1CCN(C(=O)C2CC2)CC1 [Olaparib] (partner 8 µM)
Summary of the method: as §1

Cell Line	relative viability (Alisertib + Trametinib; first compound 0.005 µM)	relative viability (Alisertib + Trametinib; first compound 0.01581 µM)	relative viability (Alisertib + Trametinib; first compound 0.05 µM)	relative viability (Alisertib + Trametinib; first compound 0.1581 µM)	relative viability (Alisertib + Trametinib; first compound 0.5 µM)	relative viability (Alisertib + Bortezomib; first compound 0.005 µM)	relative viability (Alisertib + Bortezomib; first compound 0.01581 µM)	relative viability (Alisertib + Bortezomib; first compound 0.05 µM)	relative viability (Alisertib + Bortezomib; first compound 0.1581 µM)	relative viability (Alisertib + Bortezomib; first compound 0.5 µM)	relative viability (Alisertib + Pictilisib; first compound 0.005 µM)	relative viability (Alisertib + Pictilisib; first compound 0.01581 µM)	relative viability (Alisertib + Pictilisib; first compound 0.05 µM)	relative viability (Alisertib + Pictilisib; first compound 0.1581 µM)	relative viability (Alisertib + Pictilisib; first compound 0.5 µM)	relative viability (Alisertib + Olaparib; first compound 0.005 µM)	relative viability (Alisertib + Olaparib; first compound 0.01581 µM)	relative viability (Alisertib + Olaparib; first compound 0.05 µM)	relative viability (Alisertib + Olaparib; first compound 0.1581 µM)	relative viability (Alisertib + Olaparib; first compound 0.5 µM)
NCI-H2085	0.505	0.496	0.264	0.183	0.246	0.923	0.979	0.73	0.327	0.394	0.463	0.435	0.46	0.248	0.248	0.74	0.723	0.4	0.335	0.35
NCI-H2087	0.243	0.221	0.149	0.134	0.0971	0.88	0.702	0.186	0.172	0.199	0.791	0.791	0.247	0.166	0.191	0.549	0.527	0.13	0.126	0.108
NCI-H2126	0.563	0.57	0.348	0.281	0.238	1.03	1.08	0.993	0.526	0.351	0.452	0.502	0.367	0.28	0.226	0.816	0.785	0.516	0.295	0.321
NCI-H2228	0.565	0.24	0.237	0.121	0.113	0.809	0.827	0.406	0.142	0.134	0.362	0.419	0.228	0.119	0.138	0.652	0.767	0.205	0.0922	0.0747
NCI-H2347	0.281	0.273	0.286	0.271	0.237	0.733	1.09	0.911	0.584	0.466	0.534	0.431	0.41	0.376	0.429	0.555	0.546	0.474	0.491	0.365
NCI-H2405	0.614	0.559	0.575	0.418	0.217	0.932	0.929	0.95	0.494	0.298	0.433	0.358	0.365	0.274	0.176	0.715	0.787	0.794	0.351	0.251
NCI-H3122	0.238	0.214	0.198	0.176	0.131	0.987	1.04	0.865	0.47	0.308	0.584	0.62	0.586	0.266	0.198	0.627	0.717	0.41	0.261	0.222
PC-3 [JPC-3]	0.669	0.649	0.591	0.526	0.493	0.796	0.828	0.775	0.539	0.39	0.616	0.728	0.667	0.349	0.369	1.09	1.02	0.802	0.632	0.483
PC-14	0.757	0.56	0.385	0.234	0.0465	0.876	0.732	0.515	0.208	0.0801	0.632	0.672	0.447	0.127	0.0567	0.23	0.225	0.13	0.0581	0.0485
RERF-LC-KJ	0.872	0.819	0.357	0.301	0.198	0.945	1.05	0.879	0.293	0.304	0.49	0.517	0.435	0.206	0.159	0.883	0.687	0.25	0.223	0.251
SK-LU-1	0.484	0.457	0.203	0.275	0.279	0.963	0.862	0.503	0.403	0.253	0.58	0.386	0.312	0.266	0.209	0.437	0.447	0.344	0.247	0.183
SW 1573	0.512	0.533	0.121	0.119	0.104	0.937	0.726	0.492	0.29	0.161	0.466	0.387	0.2	0.158	0.112	0.486	0.294	0.209	0.136	0.115
UMC-11	0.344	0.246	0.15	0.148	0.185	0.34	0.184	0.0876	0.107	0.122	0.316	0.379	0.129	0.137	0.133	0.287	0.216	0.193	0.252	0.215
